Values of other authors as cited in patent publication US20120058942A1, “METHODS FOR CONTROLLING BLOOD-GLUCOSE LEVELS IN INSULIN-REQUIRING SUBJECTS” (priority 2010, published 2012).
No end group written: not given here.

What was measured:
[1] = humans with diabetes mellitus
[2] = human volunteers, insulin-treated T1D

Row | Substance | stimulation of insulin secretion [1] | rise in blood glucose that accompanies absorption of a standard meal ([2]; continued insulin by IIT) | absorption of the meal ([2]; standard meal) | secretion of glucagon ([2]; standard meal)
1 | gastric-inhibitory polypeptide (YAEGTFISDYSIAMDKIHQQDFVNWLLAQKGKKNDWKHNITQ; Gastric inhibitory polypeptide; UniProt P09681 52-93, looked up) [GIP, insulin-stimulating hormone of the entero-insular axis] | failed to stimulate insulin secretion | – | – | –
2 | Glucagon-like peptide-1 (HAEGTFTSDVSSYLEGQAAKEFIAWLVKGR; ends and bridges not checked; UniProt P01275 98-127, looked up) [GLP-1, incretin; post-translational product of the glucagon gene in the intestinal L-cell] | capable of stimulating insulin secretion | powerfully restrict the rise in blood glucose | delay in absorption of the meal | suppression of secretion of glucagon
